Source: PMC8155022 (Scientific Reports, 2021)
Read-outs that look alike come from different tables or passages of the source.

What was measured:
[1] = target: T1, RARα (Homo sapiens, UniProt P10276); experiment: nuclear receptor cellular GAL4 reporter assay; type: cell-based; settings: agonist and antagonist mode; read-out: potency in agonist and antagonist mode
T1 construct: expressed in transfected cells

[2] = target: T2, VDR (Homo sapiens, UniProt P11473); experiment: nuclear receptor cellular GAL4 reporter assay; type: cell-based; settings: agonist and antagonist mode; read-out: potency in agonist and antagonist mode
T2 construct: expressed in transfected cells

[3] = target: T3, CAR (Homo sapiens, UniProt Q14994); experiment: nuclear receptor cellular GAL4 reporter assay; type: cell-based; settings: agonist and antagonist mode; read-out: potency in agonist and antagonist mode
T3 construct: expressed in transfected cells

[4] = target: T4, AT1 (h) (Homo sapiens, UniProt P30556); experiment: Cerep panel; type: binding
T4 construct: purchased Cerep (receptors, ion channels, transporters); Eurofins Panlabs (kinases)
Procedure: (§1) A panel of 52 different receptors, ion channels and transporters was tested by Cerep, Inc. (Redmond, WA).

[5] = target: T5, CCKA (h) (CCK1) (Homo sapiens, UniProt P32238); experiment: Cerep panel; type: binding
T5 construct: purchased Cerep (receptors, ion channels, transporters); Eurofins Panlabs (kinases)
T5 sequence (P32238 whole entry): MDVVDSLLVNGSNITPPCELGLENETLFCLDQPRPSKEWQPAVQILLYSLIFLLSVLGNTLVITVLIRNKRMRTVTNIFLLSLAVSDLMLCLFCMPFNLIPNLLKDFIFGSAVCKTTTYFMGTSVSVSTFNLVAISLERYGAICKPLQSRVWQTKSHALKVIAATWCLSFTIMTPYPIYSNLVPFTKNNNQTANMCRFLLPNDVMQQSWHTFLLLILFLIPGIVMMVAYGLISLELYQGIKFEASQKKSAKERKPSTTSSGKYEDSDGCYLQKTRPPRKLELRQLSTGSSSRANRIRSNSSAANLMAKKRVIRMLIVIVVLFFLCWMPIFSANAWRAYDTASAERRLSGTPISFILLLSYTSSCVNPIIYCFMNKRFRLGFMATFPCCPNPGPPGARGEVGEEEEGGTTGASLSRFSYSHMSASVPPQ
Procedure: as §1

[6] = target: T6, D2S (h) (Homo sapiens, UniProt P14416); experiment: Cerep panel; type: binding
T6 construct: purchased Cerep (receptors, ion channels, transporters); Eurofins Panlabs (kinases)
T6 sequence (P14416 1-414 isoform P14416-2): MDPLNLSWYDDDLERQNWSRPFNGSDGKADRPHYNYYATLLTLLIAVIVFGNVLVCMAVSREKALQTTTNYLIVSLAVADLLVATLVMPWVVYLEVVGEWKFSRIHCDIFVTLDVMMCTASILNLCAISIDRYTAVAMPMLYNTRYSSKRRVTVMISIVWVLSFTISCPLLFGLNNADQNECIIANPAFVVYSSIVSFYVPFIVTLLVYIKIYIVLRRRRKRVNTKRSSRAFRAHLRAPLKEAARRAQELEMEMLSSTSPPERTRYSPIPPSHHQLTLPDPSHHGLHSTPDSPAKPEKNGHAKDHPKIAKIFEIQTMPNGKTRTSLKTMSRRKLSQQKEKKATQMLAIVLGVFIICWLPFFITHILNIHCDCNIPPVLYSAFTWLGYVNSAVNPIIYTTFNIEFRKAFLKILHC
Procedure: as §1

[7] = target: T7, CCR1 (h) (Homo sapiens, UniProt P32246); experiment: Cerep panel; type: binding
T7 construct: purchased Cerep (receptors, ion channels, transporters); Eurofins Panlabs (kinases)
Procedure: as §1

[8] = target: T8, NK2 (h) (Homo sapiens, UniProt P21452); experiment: Cerep panel; type: binding
T8 construct: purchased Cerep (receptors, ion channels, transporters); Eurofins Panlabs (kinases)
T8 sequence (P21452 1-398): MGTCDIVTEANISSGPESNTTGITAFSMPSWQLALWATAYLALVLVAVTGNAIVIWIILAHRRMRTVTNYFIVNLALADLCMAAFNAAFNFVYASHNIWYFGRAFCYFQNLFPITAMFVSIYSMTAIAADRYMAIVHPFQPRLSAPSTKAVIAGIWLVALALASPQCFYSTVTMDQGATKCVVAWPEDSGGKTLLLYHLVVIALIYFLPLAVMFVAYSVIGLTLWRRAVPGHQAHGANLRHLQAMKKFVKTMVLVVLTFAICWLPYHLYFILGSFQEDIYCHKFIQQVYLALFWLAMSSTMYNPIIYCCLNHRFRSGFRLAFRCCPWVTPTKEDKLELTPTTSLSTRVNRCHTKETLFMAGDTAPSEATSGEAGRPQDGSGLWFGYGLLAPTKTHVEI
Procedure: (§2) 28 GPCRs were evaluated through cAMP or calcium FLIPR assays[67]. A panel of 52 different receptors, ion channels and transporters was tested by Cerep, Inc. (Redmond, WA). Kinase selectivity was conducted by Eurofins Panlabs Inc (St Charles, MO).

[9] = target: T9, Y1 (h) (Homo sapiens, UniProt P25929); experiment: Cerep panel; type: binding
T9 construct: purchased Cerep (receptors, ion channels, transporters); Eurofins Panlabs (kinases)
T9 sequence (P25929 whole entry): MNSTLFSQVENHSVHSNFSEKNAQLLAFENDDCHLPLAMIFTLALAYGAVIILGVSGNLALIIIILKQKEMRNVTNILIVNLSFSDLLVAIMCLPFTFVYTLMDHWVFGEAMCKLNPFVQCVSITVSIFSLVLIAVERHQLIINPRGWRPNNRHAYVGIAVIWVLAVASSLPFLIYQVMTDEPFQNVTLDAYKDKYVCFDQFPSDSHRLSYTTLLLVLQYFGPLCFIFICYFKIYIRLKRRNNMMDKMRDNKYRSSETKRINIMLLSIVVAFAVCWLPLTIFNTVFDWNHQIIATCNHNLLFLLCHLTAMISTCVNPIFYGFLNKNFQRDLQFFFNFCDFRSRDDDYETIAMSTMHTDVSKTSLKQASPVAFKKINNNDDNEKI
Procedure: as §1

[10] = target: T10, kappa (KOP) (Rattus norvegicus, UniProt P34975); experiment: Cerep panel; type: binding
T10 construct: purchased Cerep (receptors, ion channels, transporters); Eurofins Panlabs (kinases)
Procedure: as §1

[11] = target: T11, 5-HT6 (h) (Homo sapiens, UniProt P50406); experiment: Cerep panel; type: binding
T11 construct: purchased Cerep (receptors, ion channels, transporters); Eurofins Panlabs (kinases)
Procedure: as §1

[12] = target: 5HT1B (Homo sapiens, UniProt P28222); experiment: GPCR panel, cAMP or calcium FLIPR assays; type: cell-based
5HT1B, sequence (P28222 whole entry, species assumed): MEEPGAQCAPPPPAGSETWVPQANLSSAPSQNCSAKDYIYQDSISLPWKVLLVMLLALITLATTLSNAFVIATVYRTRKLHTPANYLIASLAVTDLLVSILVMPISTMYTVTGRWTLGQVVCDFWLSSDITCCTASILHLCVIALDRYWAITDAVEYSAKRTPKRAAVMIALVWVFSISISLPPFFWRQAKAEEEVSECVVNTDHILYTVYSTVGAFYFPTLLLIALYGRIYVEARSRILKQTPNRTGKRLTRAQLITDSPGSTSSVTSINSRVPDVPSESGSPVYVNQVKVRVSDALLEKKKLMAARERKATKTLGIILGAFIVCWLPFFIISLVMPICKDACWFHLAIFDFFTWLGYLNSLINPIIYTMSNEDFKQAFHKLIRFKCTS
Procedure: (§3) 28 GPCRs were evaluated through cAMP or calcium FLIPR assays[67]. A panel of 52 different receptors, ion channels and transporters was tested by Cerep, Inc. (Redmond, WA).

[13] = target: 5HT2A (Homo sapiens, UniProt P28223); experiment: GPCR panel, cAMP or calcium FLIPR assays; type: cell-based
5HT2A, sequence (P28223 whole entry, species assumed): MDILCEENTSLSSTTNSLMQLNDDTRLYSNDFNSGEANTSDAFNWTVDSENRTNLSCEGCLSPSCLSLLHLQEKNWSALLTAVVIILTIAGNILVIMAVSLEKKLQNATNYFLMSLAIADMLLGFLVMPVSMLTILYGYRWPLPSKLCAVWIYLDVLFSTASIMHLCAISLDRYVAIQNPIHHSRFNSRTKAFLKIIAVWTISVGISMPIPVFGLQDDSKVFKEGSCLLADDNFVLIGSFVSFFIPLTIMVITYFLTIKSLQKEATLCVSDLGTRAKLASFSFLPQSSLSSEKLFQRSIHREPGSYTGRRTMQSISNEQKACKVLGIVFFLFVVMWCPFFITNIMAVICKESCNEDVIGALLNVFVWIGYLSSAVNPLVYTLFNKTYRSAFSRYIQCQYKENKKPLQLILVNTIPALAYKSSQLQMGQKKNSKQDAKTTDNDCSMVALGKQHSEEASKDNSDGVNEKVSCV
Procedure: as §3

[14] = target: V1A (Homo sapiens, UniProt P37288); experiment: GPCR panel, cAMP or calcium FLIPR assays; type: cell-based
Procedure: as §2

[15] = target: T12, Aurora-B(h) (Homo sapiens, UniProt Q96GD4); experiment: Kinase panel; type: biochemical
T12 construct: purchased Cerep (receptors, ion channels, transporters); Eurofins Panlabs (kinases)
T12 sequence (Q96GD4 whole entry): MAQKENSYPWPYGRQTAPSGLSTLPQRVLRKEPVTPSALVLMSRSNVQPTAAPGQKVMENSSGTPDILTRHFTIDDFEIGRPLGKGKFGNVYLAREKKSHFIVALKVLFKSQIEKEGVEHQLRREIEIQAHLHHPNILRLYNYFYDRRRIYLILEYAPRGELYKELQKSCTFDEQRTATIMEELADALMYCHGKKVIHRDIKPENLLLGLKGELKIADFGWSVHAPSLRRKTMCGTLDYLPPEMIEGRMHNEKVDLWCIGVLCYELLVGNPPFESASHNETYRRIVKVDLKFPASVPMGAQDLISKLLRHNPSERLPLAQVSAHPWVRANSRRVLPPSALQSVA
Procedure: (§4) Kinase selectivity was conducted by Eurofins Panlabs Inc (St Charles, MO).

[16] = target: T13, FGFR1(h) (Homo sapiens, UniProt P11362); experiment: Kinase panel; type: biochemical
T13 construct: purchased Cerep (receptors, ion channels, transporters); Eurofins Panlabs (kinases)
T13 sequence (P11362 22-822): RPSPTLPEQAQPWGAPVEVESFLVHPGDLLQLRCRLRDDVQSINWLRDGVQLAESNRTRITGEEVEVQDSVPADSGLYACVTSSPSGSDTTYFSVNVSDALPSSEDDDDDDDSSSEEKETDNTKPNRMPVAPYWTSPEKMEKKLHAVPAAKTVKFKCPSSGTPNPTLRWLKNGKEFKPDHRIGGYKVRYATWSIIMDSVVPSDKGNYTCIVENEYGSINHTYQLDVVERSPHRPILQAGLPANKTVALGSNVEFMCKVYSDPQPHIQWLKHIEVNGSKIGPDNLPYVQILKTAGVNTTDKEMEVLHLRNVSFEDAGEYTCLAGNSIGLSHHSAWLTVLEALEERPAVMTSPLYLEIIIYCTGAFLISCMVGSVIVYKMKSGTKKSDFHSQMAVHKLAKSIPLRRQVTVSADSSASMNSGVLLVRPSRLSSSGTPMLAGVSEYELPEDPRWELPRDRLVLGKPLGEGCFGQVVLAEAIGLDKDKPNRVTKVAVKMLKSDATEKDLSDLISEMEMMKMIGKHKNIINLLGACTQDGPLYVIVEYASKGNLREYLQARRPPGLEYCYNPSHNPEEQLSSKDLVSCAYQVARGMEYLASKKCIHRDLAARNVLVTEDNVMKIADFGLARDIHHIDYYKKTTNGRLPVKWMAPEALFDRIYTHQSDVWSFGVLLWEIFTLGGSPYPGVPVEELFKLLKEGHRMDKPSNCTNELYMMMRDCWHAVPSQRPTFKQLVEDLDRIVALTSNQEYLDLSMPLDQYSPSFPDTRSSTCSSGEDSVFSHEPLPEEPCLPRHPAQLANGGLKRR
Procedure: as §4

[17] = target: T14, Ret(h) (Homo sapiens, UniProt P07949); experiment: Kinase panel; type: biochemical
T14 construct: purchased Cerep (receptors, ion channels, transporters); Eurofins Panlabs (kinases)
Procedure: as §4

[18] = target: T15, ROCK-I(h) (Homo sapiens, UniProt Q13464); experiment: Kinase panel; type: biochemical
T15 construct: purchased Cerep (receptors, ion channels, transporters); Eurofins Panlabs (kinases)
T15 sequence (Q13464 whole entry): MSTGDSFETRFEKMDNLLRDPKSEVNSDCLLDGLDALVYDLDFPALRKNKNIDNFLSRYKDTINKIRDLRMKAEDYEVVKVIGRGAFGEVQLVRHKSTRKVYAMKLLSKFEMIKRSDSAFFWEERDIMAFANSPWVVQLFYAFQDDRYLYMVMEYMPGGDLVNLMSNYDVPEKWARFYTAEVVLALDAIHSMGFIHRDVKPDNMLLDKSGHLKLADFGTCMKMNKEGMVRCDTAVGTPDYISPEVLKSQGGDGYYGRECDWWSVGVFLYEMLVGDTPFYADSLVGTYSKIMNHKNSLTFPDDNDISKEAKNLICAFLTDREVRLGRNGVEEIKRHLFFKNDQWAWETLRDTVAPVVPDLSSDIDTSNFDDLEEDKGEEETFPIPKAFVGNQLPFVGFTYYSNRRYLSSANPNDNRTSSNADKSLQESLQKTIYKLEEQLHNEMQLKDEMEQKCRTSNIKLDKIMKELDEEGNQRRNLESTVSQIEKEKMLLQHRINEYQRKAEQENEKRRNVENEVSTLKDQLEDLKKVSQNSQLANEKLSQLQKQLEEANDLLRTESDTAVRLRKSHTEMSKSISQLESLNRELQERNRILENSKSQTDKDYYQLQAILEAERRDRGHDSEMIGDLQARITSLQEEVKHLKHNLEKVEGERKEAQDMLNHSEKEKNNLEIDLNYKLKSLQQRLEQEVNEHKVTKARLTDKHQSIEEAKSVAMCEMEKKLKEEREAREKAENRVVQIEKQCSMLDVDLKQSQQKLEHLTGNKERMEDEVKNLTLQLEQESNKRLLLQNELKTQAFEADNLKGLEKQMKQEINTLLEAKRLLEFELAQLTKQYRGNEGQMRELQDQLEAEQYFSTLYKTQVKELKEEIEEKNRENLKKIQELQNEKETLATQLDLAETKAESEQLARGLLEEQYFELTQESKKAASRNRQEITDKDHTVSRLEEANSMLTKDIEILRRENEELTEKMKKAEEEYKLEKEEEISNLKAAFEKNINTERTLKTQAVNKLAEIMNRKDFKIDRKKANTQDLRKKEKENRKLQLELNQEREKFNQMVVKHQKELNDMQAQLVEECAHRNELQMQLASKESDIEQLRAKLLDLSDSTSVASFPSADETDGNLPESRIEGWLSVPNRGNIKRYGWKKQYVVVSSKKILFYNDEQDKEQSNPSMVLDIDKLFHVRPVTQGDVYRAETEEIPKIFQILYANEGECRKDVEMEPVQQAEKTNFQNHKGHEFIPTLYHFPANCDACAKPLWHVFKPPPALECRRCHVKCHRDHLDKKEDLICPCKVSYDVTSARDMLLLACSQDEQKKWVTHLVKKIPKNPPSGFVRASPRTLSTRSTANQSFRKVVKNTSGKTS
Procedure: as §4

[19] = target: T16, SAPK4(h) (Homo sapiens, UniProt O15264); experiment: Kinase panel; type: biochemical
T16 construct: purchased Cerep (receptors, ion channels, transporters); Eurofins Panlabs (kinases)
T16 sequence (O15264 whole entry): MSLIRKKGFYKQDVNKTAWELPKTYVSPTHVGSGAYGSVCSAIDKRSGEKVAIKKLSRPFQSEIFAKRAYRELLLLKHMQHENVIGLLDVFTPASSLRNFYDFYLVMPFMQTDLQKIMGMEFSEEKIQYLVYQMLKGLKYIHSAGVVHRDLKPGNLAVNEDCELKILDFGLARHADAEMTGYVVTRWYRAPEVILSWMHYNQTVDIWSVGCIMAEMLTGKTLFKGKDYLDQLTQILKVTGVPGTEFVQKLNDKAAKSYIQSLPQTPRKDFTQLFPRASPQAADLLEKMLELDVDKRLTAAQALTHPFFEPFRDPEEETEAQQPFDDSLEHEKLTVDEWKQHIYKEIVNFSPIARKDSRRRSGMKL
Procedure: as §4

[20] = system: ex vivo stimulated IL-17A production in the blood; experiment: mouse PK/PD model, ex vivo stimulated IL-17A production; settings: 100 mg/kg oral; for inhibition at 100 mg/kg: 5-fold diluted blood
From the text: Compound concentrations are also listed as undiluted (measured) and diluted (extrapolated) in Supplementary Table S2.

[21] = system: human CD4+ T cells under Th17 differentiation; experiment: in vitro human Th17 differentiation, cytokine production
Procedure: On day 4, supernatants were analyzed for IL-17A, IL-17F, IL-22 and IFNγ production.
Total CD4^+ T cells were isolated from peripheral blood mononuclear cells (PBMCs) of healthy donors using a CD4^+ T cell Isolation Kit II (Miltenyl Biotec, Auburn, CA), following the manufacturer’s instructions.
In vitro human Th17 and Th1 differentiation
Total CD4+ T cells were isolated from the peripheral blood mononuclear cells (PBMCs) of healthy donors
using a CD4+ T cell Isolation Kit II (Miltenyl Biotec, Auburn, CA), following the manufacturer’s
instructions. Isolated T cells were resuspended in culture medium and added to a 96-well plate at 1×105
beads (prepared using human T cell activation/expansion kit, Miltenyi Biotec) at final concentration of
3x10^6/mL, and cocktail for either Th17 differentiation (10 µg/mL anti-IL-4, 10 µg/mL anti-IFN, 10 ng/mL
IL-1β, 10 ng/mL IL-23, 50 ng/mL IL-6, 3 ng/mL TGFβ and 20 U/mL IL-2), or for Th1 differentiation (10
µg/mL anti-IL-4, 10 ng/mL IL-12, and 20 U/mL IL-2). Cells were cultured at 37°C and 5% CO2 for 3 days.
Supernatants were assayed for accumulated cytokines using MSD multi-spot assay (Meso Scale
Discovery, Rockville, MD) or R&D ELISA kit.

## CC1CCCN1C(=O)c1nc(C(=O)NCC(C)(C)O)sc1-c1ccc(C(O)(C(F)(F)F)C(F)(F)F)c(Cl)c1Cl (stereo not shown) [JNJ-61803534]
[1]
  IC50: > 1500 nM
[2]
  IC50: > 1500 nM
[3]
  IC50: > 1500 nM
[4]
  inhibition at 1 µM: < 10%
  inhibition at 10 µM: < 10%
[5]
  inhibition at 1 µM: < 10%
  inhibition at 10 µM: < 10%
[6]
  inhibition at 1 µM: < 10%
  inhibition at 10 µM: < 10%
[7]
  inhibition at 1 µM: < 10%
  inhibition at 10 µM: < 10%
[8]; 1 µM
  inhibition at 1 µM: < 10%
[8]; 10 µM
  % Inhibition at 10 µM: 54.8%
  inhibition at 10 µM: > 50%
[9]
  inhibition at 1 µM: < 10%
  inhibition at 10 µM: < 10%
[10]
  inhibition at 1 µM: < 10%
  inhibition at 10 µM: < 10%
[11]
  inhibition at 1 µM: < 10%
  inhibition at 10 µM: < 10%
[12]; agonist
  EC50: > 12.5 µM
[12]; antagonist
  IC50: > 12.5 µM
[13]; agonist
  EC50: > 10 µM
[13]; antagonist
  IC50: > 10 µM
[14]; agonist
  EC50: > 10 µM
[14]; antagonist
  IC50: > 10 µM
[15]
  activity at 1 µM: 124%
  activity at 10 µM: 145%
[16]
  activity at 1 µM: 103%
  activity at 10 µM: 125%
[17]
  activity at 1 µM: 107%
  activity at 10 µM: 104%
[18]
  activity at 1 µM: 108%
  activity at 10 µM: 110%
[19]
  activity at 1 µM: 100%
  activity at 10 µM: 112%
[20]; 1 h post-dose
  inhibition at 100 mg/kg: 86 ± 6.7%
[20]; 2 h post-dose
  inhibition at 100 mg/kg: 89 ± 7.1%
[20]; 4 h post-dose
  inhibition at 100 mg/kg: 72 ± 14%
[20]; 7 h post-dose
  inhibition at 100 mg/kg: 75 ± 7.5%
[20]; 12 h post-dose
  inhibition at 100 mg/kg: 62 ± 17%
[20]; 18 h post-dose, without statistical significance
  inhibition at 100 mg/kg: 30 ± 60%
[20]; concentration in 5-fold diluted plasma, read-out: compound concentration for 50% inhibition of ex vivo IL-17A
  EC50 at 100 mg/kg: 240 to 860 nM
[21]; read-out: IC50 (95% confidence intervals), IL-17A production
  IC50: 19 nM
[21]; read-out: IC50 (95% confidence intervals), IL-17F production
  IC50: 22 nM
[21]; read-out: IC50 (95% confidence intervals), IL-22 production
  IC50: 27 nM
